Test systems include ACHN renal; SF-539 CNS; SK-OV-3 ovarian; LOX IMVI melanoma; MDA-MB-231 breast; NCI-H522 lung; RPMI-8226 leukemia; SN12C renal; SNB-19 CNS; U251 CNS.
What all share (assay): growth of human tumour cells (NCI), 48 h

This passage reports GI50 and TGI results from PubChem BioAssay (NCI).

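Exposure lasted 48 hours, with cells grown in 96-well plates and compounds tested at five concentrations. GI50 marks 50% less growth. TGI denotes the concentration required for complete inhibition of growth.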

As to `Clc1ccc(C2CC(c3cccc(Nc4ccncc4)c3)=NN2c2ccc(Cl)cc2)cc1` (stereo not drawn), the values for the GI50 in the assay with ACHN renal, in the assay on SF-539 CNS and in the assay with SK-OV-3 ovarian were 1.64 µM, 1.64 µM and 1.77 µM, respectively. The TGI in the assay on ACHN renal was determined as 3 µM; in the assay on SF-539 CNS, 3.03 µM; in the assay with SK-OV-3 ovarian, 3.41 µM.

As for `COc1ccc(C(=O)O[C@H]2CC[C@@]3(C)[C@@H]4CC[C@H]5[C@]6(O)C[C@H](O)[C@@]7(O)[C@@H](CN8C[C@@H](C)CC[C@H]8[C@@]7(C)O)[C@]6(O)C[C@@]53OC24O)cc1OC`, the TGI in the assay with ACHN renal, in the assay with LOX IMVI melanoma, with MDA-MB-231 breast, in the assay on NCI-H522 lung, in the assay with RPMI-8226 leukemia and in the assay with SF-539 CNS was over 100 µM in each case. Also, the TGI in the assay on SK-OV-3 ovarian, in the assay with SN12C renal, in the assay on SNB-19 CNS and in the assay with U251 CNS was over 100 µM throughout.

As for `CC[C@@]1(OC(=O)CN(C)C)C(=O)OCc2c1cc1n(c2=O)Cc2cc3c(N)cccc3nc2-1`, the GI50 in the assay with ACHN renal was 0.0286 µM; in the assay on LOX IMVI melanoma it was 0.014 µM; in the assay with MDA-MB-231 breast, 1.07 µM; with NCI-H522 lung it was 0.0744 µM; in the assay on RPMI-8226 leukemia, 0.0636 µM; with SK-OV-3 ovarian, 0.0402 µM. Moreover, the GI50 in the assay with SNB-19 CNS is 0.0252 µM; in the assay on U251 CNS, 0.0217 µM. The TGI was 0.287 µM in the assay on ACHN renal; 0.162 µM in the assay with LOX IMVI melanoma; over 100 µM in the assay on MDA-MB-231 breast; 3.36 µM with NCI-H522 lung; 0.541 µM in the assay on RPMI-8226 leukemia; 0.884 µM in the assay on SK-OV-3 ovarian. The values for the TGI in the assay on SNB-19 CNS and in the assay with U251 CNS were over 100 µM and 0.249 µM, respectively.

`Clc1cc2ccccc2c2ccccc12`: the TGI in the assay with ACHN renal, in the assay on LOX IMVI melanoma, in the assay on MDA-MB-231 breast, in the assay on NCI-H522 lung, in the assay with RPMI-8226 leukemia and in the assay on SF-539 CNS was over 100 µM throughout. The TGI with SN12C renal, with SNB-19 CNS and in the assay with U251 CNS was over 100 µM in each case.

For `NC1C=NNC1=O` (stereo not drawn), the TGI with ACHN renal, in the assay on LOX IMVI melanoma, in the assay with NCI-H522 lung, in the assay on RPMI-8226 leukemia, with SF-539 CNS and in the assay on SK-OV-3 ovarian was over 100 µM throughout. Further, the TGI in the assay on SN12C renal, with SNB-19 CNS and in the assay with U251 CNS was over 100 µM throughout.

For the compound `CCC1C(C#N)=C(O)NC(O)=C1C#N`, the TGI in the assay with ACHN renal, in the assay on LOX IMVI melanoma, with NCI-H522 lung, with RPMI-8226 leukemia, in the assay with SF-539 CNS and in the assay on SK-OV-3 ovarian was over 100 µM throughout. In addition, the TGI with SN12C renal, in the assay on SNB-19 CNS and with U251 CNS was over 100 µM each time.

In the case of `O=C(O)C(O)(c1ccc(-c2ccccc2)cc1)c1ccc(-c2ccccc2)cc1`, the TGI in the assay on ACHN renal is 94.7 µM; with LOX IMVI melanoma, 31.8 µM; with MDA-MB-231 breast, 79.1 µM; with NCI-H522 lung it was 47.5 µM; with RPMI-8226 leukemia it was over 100 µM; with SN12C renal it was 60.7 µM. Further, the TGI is over 100 µM in the assay on SNB-19 CNS and 32.7 µM with U251 CNS.

As for `C[C@]12Cc3cnc(-c4ccccc4)nc3C[C@@H]1CC[C@@H]1[C@@H]2CC[C@@]2(C)[C@H]1CC[C@]2(C)O`, the TGI in the assay on ACHN renal is over 64.9 µM; in the assay on LOX IMVI melanoma, 31.3 µM; in the assay on MDA-MB-231 breast it was 73.1 µM; in the assay on NCI-H522 lung, 31.2 µM; with RPMI-8226 leukemia, 55 µM; in the assay on SF-539 CNS, 9.55 µM. For the same compound, the TGI came out at 50 µM in the assay with SK-OV-3 ovarian, 57.3 µM with SN12C renal, 44.3 µM with SNB-19 CNS and 41.4 µM in the assay on U251 CNS.

Turning to `O=NN1C(c2ccccc2)C2CCCC(C2=O)C1c1ccccc1` (stereo not drawn), the TGI in the assay with LOX IMVI melanoma was 54.9 µM; with NCI-H522 lung, 46.4 µM; in the assay on RPMI-8226 leukemia, 48.4 µM; with SF-539 CNS, over 100 µM; with SK-OV-3 ovarian, 73.6 µM; in the assay with SN12C renal, 69.9 µM. Further, the results for the TGI with SNB-19 CNS and with U251 CNS were over 92.5 µM and over 84.9 µM, respectively.

For the compound `COc1ccc(C(=O)NC2=C(Cl)C(=O)c3ccccc3C2=O)cc1`, the TGI with ACHN renal came to 1.73 µM; in the assay with LOX IMVI melanoma, 6.66 µM; with MDA-MB-231 breast, 14.6 µM; with NCI-H522 lung it was 1.49 µM; in the assay on SF-539 CNS, 11.6 µM; in the assay with SK-OV-3 ovarian, 9.85 µM. Moreover, the TGI in the assay on SN12C renal is 9.46 µM; with SNB-19 CNS it was 17.4 µM; with U251 CNS, 8.38 µM.

`O=C1CCCC/C1=C1/SC(=Nc2ccccc2)C(=Nc2ccccc2)N1c1ccccc1`: the TGI in the assay on MDA-MB-231 breast, in the assay with NCI-H522 lung, in the assay with RPMI-8226 leukemia, in the assay with SK-OV-3 ovarian, in the assay on SN12C renal and in the assay with SNB-19 CNS was over 100 µM in each case. In addition, the TGI in the assay with U251 CNS was over 100 µM.

Consider `COc1ccc(NC(=S)NNC(=O)c2nsc3ccccc23)cc1`, for which the TGI is over 100 µM in the assay with ACHN renal; over 100 µM with LOX IMVI melanoma; over 100 µM in the assay on RPMI-8226 leukemia; 75.8 µM with SF-539 CNS; over 100 µM in the assay with SN12C renal; over 100 µM with SNB-19 CNS. In the assay on U251 CNS, this compound returned a TGI of over 100 µM.
